Source: US20030203356A1, “RNase L activator-antisense complexes” (priority 2002, published 2003)
Read-outs that look alike come from different tables or passages of the source. Oligonucleotides are written 5' to 3', each unit as a sugar letter and its base; * is a phosphorothioate linkage, no mark a phosphodiester; rarer units and linkages stand in square brackets, end groups in braces. Plain capitals give the bases only. {spA4} = thiophosphorylated 2',5'-linked tetraadenylate (2-5A), RNase L activator; {spA3} = thiophosphorylated 2',5'-linked triadenylate (2-5A), RNase L activator; {S9} = spacer 9 linker, triethylene glycol phosphate; {BU2} = two butanediol phosphate linkers; m = 2'-O-methyl

Tested on: RSV
Experiment: anti-RSV activity in infected HEp-2 cells (reduction of cytopathic effects, neutral red uptake assay)
Format: cell-based, Respiratory Syncytial Virus
Excerpt: A comparison of the efficacies of RBI245 treatment and conventional ribarvirin treatment can be obtained by determining the RSV-inhibitory concentration and the cytotoxic concentration of each compound. Cultures of the human laryngeal carcinoma cell line HEp-were established and infected with an MOI=0.02. Treatment with either ribavirin or RBI245 was begun one hour post-infection. The effects of treatment on RSV infection were reported as an EC50, the concentration at which there was a 50% reduction in the observable cytopathic effects of infection. The results of the treatment of HEp-2 cells with RBI245, ribavirin, and other activator-antisense complexes are shown in FIG. 1 and summarized in Table 2. […] Therefore, the activity of RBI245 in vitro is more than 1000-fold better than ribavarin, the only approved drug for the treatment of RSV. No toxicity was found for any of the 2-5A oligonucleotide compounds up to the maximum dosage tested (3.2 μM).

[1] = HEp-2 cells infected with RSV, MOI=0.02, treatment begun one hour post-infection, read-out: EC50 in μM (50% Effective dose based on neutral red uptake assay)

5′sp-A2′s5′A2′s5′A2′s5′A2′-p(CH2CH2O)3-p-5′(AsAsAsAAUGGGGCAAAsUsAsA)m03′ (antisense {spA4}-{S9}-mA*mA*mA*mAmAmUmGmGmGmGmCmAmAmA*mU*mA*mA; 5' 2-5A activator attached via triethylene glycol linker, further chemistry not given here) [RBI245]
EC50 (HEp-2 cells, MOI=0.02, treatment one hour post-infection, read-out: EC50, concentration at which there was a 50% reduction in the observable cytopathic effects of infection): 0.02 µM | anti-RSV activity in vitro relative to ribavirin (ratio of in vitro potency versus ribavirin): more than 1000 fold

NC(=O)c1ncn([C@@H]2O[C@H](CO)[C@@H](O)[C@H]2O)n1 [Ribavirin, reference compound]
EC50 (human respiratory syncytial virus, 1 h, HEp-2 cells infected with RSV, MOI=0.02, treatment begun one hour post-infection, read-out: EC50 in μM (50% Effective dose based on neutral red uptake assay)): 60 µM | EC50 (human respiratory syncytial virus, 1 h, HEp-2 cells, MOI=0.02, treatment one hour post-infection, read-out: EC50, concentration at which there was a 50% reduction in the observable cytopathic effects of infection): 60 µM

(spA)3-S9-(AsAsAsAAUGGGGCAsAsA)m-3′ ({spA3}-{S9}-mA*mA*mA*mAmAmUmGmGmGmGmCmA*mA*mA; antisense; 5' 2-5A activator attached via linker) [RBI243, shortened version of 245]
EC50 [1]: 0.3 µM

spA4-BU2-(AsAsAsAAUGGGGCAAAsUsAsA)m3′ ({spA4}-{BU2}-mA*mA*mA*mAmAmUmGmGmGmGmCmAmAmA*mU*mA*mA; antisense; 5' 2-5A activator attached via linker) [RBI034]
EC50 [1]: 0.6 µM

spA4-BU2-(GsAsTsAGAAATAGAAAsGsCsA)m-3′ (GATAGAAATAGAAAGCA; antisense; all 2'-O-methyl, linkages s3 o10 s3 (s phosphorothioate, o phosphodiester), 5' {spA4}-{BU2}, T or U not given here; 5' 2-5A activator attached via linker) [RBI066, scrambled control, reference compound]
EC50 [1]: > 3.2 µM
